Measured values from patent US9149038B2, “4-amino-6-(heterocyclic)picolinates and 6-amino-2-(heterocyclic)pyrimidine-4-carboxylates and their use as herbicides” (Dow AgroSciences LLC, priority 2013, dated 2015).
Read-outs that look alike come from different tables or passages of the source.

Assays:
[1] = tested on: Key Broadleaf Weed and Crop Species; experiment: Post-Emergent Test II: postemergent herbicidal activity, visual rating after 14 d (Table 7); type: in vivo; details: post-emergence, 336 h; for pest or weed control at 35 g/ha: 35 g ai/ha; for pest or weed control at 70 g/ha: 70 g ai/ha; for pest or weed control at 140 g/ha: 140 g ai/ha
Procedure, shortened: (§1)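 Visual 0-100% injury score (0 no injury, 100 complete kill) at 14 d post-spray, relative to untreated plants. Seedlings at 1st-2nd true leaf stage; track sprayer at 187 L/ha, highest rate plus ½×, ¼×, ⅛×, 1/16× serial dilutions. Subirrigated after treatment.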

[2] = tested on: Key Grass and Sedge Weeds as well as Grass Crops; experiment: Post-Emergent Test II: postemergent herbicidal activity, visual rating after 14 d (Table 8); type: in vivo; details: post-emergence, 336 h; for pest or weed control at 35 g/ha: 35 g ai/ha; for pest or weed control at 70 g/ha: 70 g ai/ha; for pest or weed control at 140 g/ha: 140 g ai/ha
Procedure, shortened: as §1

[3] = lambsquarters (Chenopodium album), read-out: Visual Growth Reduction (%) 14 Days After Application CHEAL
[4] = oilseed rape, canola (Brassica napus), read-out: Visual Growth Reduction (%) 14 Days After Application BRSNN
[5] = redroot pigweed (Amaranthus retroflexus), read-out: Visual Growth Reduction (%) 14 Days After Application AMARE
[6] = sunflower (Helianthus annuus), read-out: Visual Growth Reduction (%) 14 Days After Application HELAN
[7] = velvetleaf (Abutilon theophrasti), read-out: Visual Growth Reduction (%) 14 Days After Application ABUTH
[8] = wild poinsettia (Euphorbia heterophylla), read-out: Visual Growth Reduction (%) 14 Days After Application EPHHL
[9] = barnyardgrass (Echinochloa crus-galli), read-out: Visual Growth Reduction (%) 14 Days After Application ECHCG
[10] = giant foxtail (Setaria faberi), read-out: Visual Growth Reduction (%) 14 Days After Application SETFA
[11] = maize, corn (Zea mays), read-out: Visual Growth Reduction (%) 14 Days After Application ZEAMX
[12] = rice (Oryza sativa), read-out: Visual Growth Reduction (%) 14 Days After Application ORYSA
[13] = wheat, spring (Triticum aestivum), read-out: Visual Growth Reduction (%) 14 Days After Application TRZAS
[14] = yellow nutsedge (Cyperus esculentus), read-out: Visual Growth Reduction (%) 14 Days After Application CYPES

| SMILES | pest or weed control at 35 g/ha [1, 3] [%] | pest or weed control at 70 g/ha [1, 3] [%] | pest or weed control at 140 g/ha [1, 3] [%] | pest or weed control at 35 g/ha [1, 4] [%] | pest or weed control at 70 g/ha [1, 4] [%] | pest or weed control at 140 g/ha [1, 4] [%] | pest or weed control at 35 g/ha [1, 5] [%] | pest or weed control at 70 g/ha [1, 5] [%] | pest or weed control at 140 g/ha [1, 5] [%] | pest or weed control at 35 g/ha [1, 6] [%] | pest or weed control at 70 g/ha [1, 6] [%] | pest or weed control at 140 g/ha [1, 6] [%] | pest or weed control at 35 g/ha [1, 7] [%] | pest or weed control at 70 g/ha [1, 7] [%] | pest or weed control at 140 g/ha [1, 7] [%] | pest or weed control at 35 g/ha [1, 8] [%] | pest or weed control at 70 g/ha [1, 8] [%] | pest or weed control at 140 g/ha [1, 8] [%] | pest or weed control at 35 g/ha [2, 9] [%] | pest or weed control at 70 g/ha [2, 9] [%] | further results |
| --- | --- | --- | --- | --- | --- | --- | --- | --- | --- | --- | --- | --- | --- | --- | --- | --- | --- | --- | --- | --- | --- |
| COc1c(C(=O)O)nc(-c2cc3c(cc2F)OC(F)(F)O3)c(F)c1N [Compound 23] | 0 to 29 | 0 to 29 | 0 to 29 | 0 to 29 | 75 to 84 | 85 to 94 | 0 to 29 | 0 to 29 | 0 to 29 | 75 to 84 | 85 to 94 | 85 to 94 | 0 to 29 | 0 to 29 | 0 to 29 | 95 to 100 | 95 to 100 | 95 to 100 | 75 to 84 | 95 to 100 | pest or weed control at 140 g/ha [2, 9]: 95 to 100%; pest or weed control at 35 g/ha [2, 10]: 60 to 74%; pest or weed control at 70 g/ha [2, 10]: 75 to 84%; pest or weed control at 140 g/ha [2, 10]: 75 to 84%; pest or weed control at 35 g/ha [2, 11]: 60 to 74%; pest or weed control at 70 g/ha [2, 11]: 60 to 74%; pest or weed control at 140 g/ha [2, 11]: 60 to 74%; pest or weed control at 35 g/ha [2, 12]: 0 to 29%; pest or weed control at 70 g/ha [2, 12]: 0 to 29%; pest or weed control at 140 g/ha [2, 12]: 0 to 29%; pest or weed control at 35 g/ha [2, 13]: 45 to 59%; pest or weed control at 70 g/ha [2, 13]: 45 to 59%; pest or weed control at 140 g/ha [2, 13]: 60 to 74%; pest or weed control at 35 g/ha [2, 14]: 0 to 29%; pest or weed control at 70 g/ha [2, 14]: 45 to 59%; pest or weed control at 140 g/ha [2, 14]: 45 to 59% |
| COC(=O)c1nc(-c2ccc3c(c2)OC(F)(F)O3)c(F)c(N)c1OC [Compound 24] | 0 to 29 | 0 to 29 | 0 to 29 | 0 to 29 | 0 to 29 | 0 to 29 | 0 to 29 | 0 to 29 | 0 to 29 | 0 to 29 | 0 to 29 | 0 to 29 | 0 to 29 | 0 to 29 | 0 to 29 | 75 to 84 | 95 to 100 | 95 to 100 | 60 to 74 | 85 to 94 | pest or weed control at 140 g/ha [2, 9]: 95 to 100%; pest or weed control at 35 g/ha [2, 10]: 0 to 29%; pest or weed control at 70 g/ha [2, 10]: 0 to 29%; pest or weed control at 140 g/ha [2, 10]: 0 to 29%; pest or weed control at 35 g/ha [2, 11]: 60 to 74%; pest or weed control at 70 g/ha [2, 11]: 75 to 84%; pest or weed control at 140 g/ha [2, 11]: 75 to 84%; pest or weed control at 35 g/ha [2, 12]: 0 to 29%; pest or weed control at 70 g/ha [2, 12]: 0 to 29%; pest or weed control at 140 g/ha [2, 12]: 0 to 29%; pest or weed control at 35 g/ha [2, 13]: 0 to 29%; pest or weed control at 70 g/ha [2, 13]: 0 to 29%; pest or weed control at 140 g/ha [2, 13]: 30 to 44%; pest or weed control at 35 g/ha [2, 14]: 95 to 100%; pest or weed control at 70 g/ha [2, 14]: 95 to 100%; pest or weed control at 140 g/ha [2, 14]: 95 to 100% |
| COc1c(C(=O)O)nc(-c2ccc3c(c2)OC(F)(F)O3)c(F)c1N [Compound 25] | 0 to 29 | 0 to 29 | 45 to 59 | 75 to 84 | 95 to 100 | 95 to 100 | 0 to 29 | 0 to 29 | 0 to 29 | 0 to 29 | 0 to 29 | 0 to 29 | 45 to 59 | 60 to 74 | 75 to 84 | 95 to 100 | 95 to 100 | 95 to 100 | 85 to 94 | 85 to 94 | pest or weed control at 140 g/ha [2, 9]: 95 to 100%; pest or weed control at 35 g/ha [2, 10]: 45 to 59%; pest or weed control at 70 g/ha [2, 10]: 60 to 74%; pest or weed control at 140 g/ha [2, 10]: 60 to 74%; pest or weed control at 35 g/ha [2, 11]: 60 to 74%; pest or weed control at 70 g/ha [2, 11]: 75 to 84%; pest or weed control at 140 g/ha [2, 11]: 75 to 84%; pest or weed control at 35 g/ha [2, 12]: 0 to 29%; pest or weed control at 70 g/ha [2, 12]: 30 to 44%; pest or weed control at 140 g/ha [2, 12]: 60 to 74%; pest or weed control at 35 g/ha [2, 13]: 45 to 59%; pest or weed control at 70 g/ha [2, 13]: 45 to 59%; pest or weed control at 140 g/ha [2, 13]: 60 to 74%; pest or weed control at 35 g/ha [2, 14]: 95 to 100%; pest or weed control at 70 g/ha [2, 14]: 95 to 100%; pest or weed control at 140 g/ha [2, 14]: 95 to 100% |
